Experimental data published in patent US9580437B2, “Triazolopyrimidine compounds and uses thereof” (Novartis AG, priority 2014, dated 2017).

What was measured:
EED (1-441)-His protein = EED (1-441)-His protein (Homo sapiens (Human), UniProt O75530); experiment: EED-H3K27Me3 peptide competition binding assay by AlphaScreen; settings: read-out: (a) IC50 EED Alphascreen binding Qualified
Excerpt: EED-H3K27Me3 peptide competition binding assay by AlphaScreen (α-screen)

[1] = biological target: wild type PRC2 (wtPRC2) complex (Homo sapiens (Human), UniProt O75530); experiment: EED LC-MS assay; assay type: biochemical; settings: read-out: (b) IC50 EED LC-MS Qualified
Protocol: A 6 μL solution of 3 μM of the peptide substrate H3K27Me0 (histone H3[21-44]-biotin) in reaction buffer was added to initiate each reaction. […] ELISA (H3K27 Methylation) Assay

Chain of wild type PRC2 (wtPRC2) complex (O75530 whole entry): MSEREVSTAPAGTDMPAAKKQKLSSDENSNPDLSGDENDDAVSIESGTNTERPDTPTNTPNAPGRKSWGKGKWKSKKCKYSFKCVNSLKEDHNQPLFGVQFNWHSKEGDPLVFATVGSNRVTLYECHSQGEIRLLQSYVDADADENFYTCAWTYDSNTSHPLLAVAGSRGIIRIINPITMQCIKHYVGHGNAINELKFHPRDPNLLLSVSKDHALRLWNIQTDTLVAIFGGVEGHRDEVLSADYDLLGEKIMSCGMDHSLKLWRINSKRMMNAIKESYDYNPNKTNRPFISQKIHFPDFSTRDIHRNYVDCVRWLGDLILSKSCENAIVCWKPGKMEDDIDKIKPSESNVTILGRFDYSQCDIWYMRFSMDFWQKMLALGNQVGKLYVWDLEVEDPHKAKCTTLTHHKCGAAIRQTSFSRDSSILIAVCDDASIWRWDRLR
Chain of wild type PRC2 (wtPRC2) complex (Q15910 whole entry partner): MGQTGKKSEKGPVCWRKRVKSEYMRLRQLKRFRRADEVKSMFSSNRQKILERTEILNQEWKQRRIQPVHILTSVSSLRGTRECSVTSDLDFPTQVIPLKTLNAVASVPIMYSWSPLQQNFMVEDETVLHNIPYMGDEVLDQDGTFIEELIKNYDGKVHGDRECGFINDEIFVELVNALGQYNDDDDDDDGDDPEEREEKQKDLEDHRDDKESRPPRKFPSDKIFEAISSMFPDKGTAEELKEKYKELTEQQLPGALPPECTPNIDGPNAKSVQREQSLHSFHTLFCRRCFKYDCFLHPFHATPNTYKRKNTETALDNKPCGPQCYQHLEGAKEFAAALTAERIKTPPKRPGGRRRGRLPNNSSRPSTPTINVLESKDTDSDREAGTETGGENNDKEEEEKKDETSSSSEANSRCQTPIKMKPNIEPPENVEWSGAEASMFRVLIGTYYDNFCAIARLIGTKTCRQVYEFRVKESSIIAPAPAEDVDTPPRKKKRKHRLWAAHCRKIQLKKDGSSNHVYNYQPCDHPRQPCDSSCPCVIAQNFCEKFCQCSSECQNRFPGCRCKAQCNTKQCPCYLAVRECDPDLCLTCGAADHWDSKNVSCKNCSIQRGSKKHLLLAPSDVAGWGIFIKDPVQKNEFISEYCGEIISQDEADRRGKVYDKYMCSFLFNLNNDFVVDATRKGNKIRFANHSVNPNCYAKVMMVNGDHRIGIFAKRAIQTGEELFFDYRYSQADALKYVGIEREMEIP
Chain of wild type PRC2 (wtPRC2) complex (Q15022 whole entry partner): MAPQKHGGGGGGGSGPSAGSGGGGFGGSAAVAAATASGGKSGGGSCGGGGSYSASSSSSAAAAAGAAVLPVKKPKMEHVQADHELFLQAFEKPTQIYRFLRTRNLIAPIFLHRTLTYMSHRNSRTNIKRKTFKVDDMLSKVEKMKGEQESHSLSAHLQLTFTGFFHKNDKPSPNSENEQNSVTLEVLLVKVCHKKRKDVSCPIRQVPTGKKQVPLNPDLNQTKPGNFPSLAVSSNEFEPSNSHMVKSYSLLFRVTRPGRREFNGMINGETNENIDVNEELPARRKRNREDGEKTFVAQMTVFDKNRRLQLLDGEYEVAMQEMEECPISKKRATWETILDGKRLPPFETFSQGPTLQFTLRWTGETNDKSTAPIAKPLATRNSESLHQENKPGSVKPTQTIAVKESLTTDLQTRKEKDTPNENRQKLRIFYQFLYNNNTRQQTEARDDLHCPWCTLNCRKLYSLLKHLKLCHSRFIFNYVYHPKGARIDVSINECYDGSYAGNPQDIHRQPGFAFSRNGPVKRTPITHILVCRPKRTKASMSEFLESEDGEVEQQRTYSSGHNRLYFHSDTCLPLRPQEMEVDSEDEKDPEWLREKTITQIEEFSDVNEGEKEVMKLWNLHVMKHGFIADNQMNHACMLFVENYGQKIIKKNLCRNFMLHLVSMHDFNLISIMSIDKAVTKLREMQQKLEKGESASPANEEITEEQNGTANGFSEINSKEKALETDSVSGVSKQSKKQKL
Chain of EED (1-441)-His protein (O75530 whole entry): as the sequence (O75530 whole entry) above

SMILES | IC50 (EED (1-441)-His protein) [nM] | IC50 [1] [nM]
c1cc(CNc2ncc(-c3ccc(N4CCOCC4)nc3)c3nncn23)c2c(c1)OCC2 [Example 69, N-((2,3-dihydrobenzofuran-4-yl)methyl)-8-(6-morpholinopyridin-3-yl)-[1,2,4]triazolo[4,3-c]pyrimidin-5-amine] | 182 | 377
CN(C)CCc1ccc(-c2cnc(NCc3cccc4c3CCO4)n3cnnc23)cc1 [Example 35, N-((2,3-dihydrobenzofuran-4-yl)methyl)-8-(4-(2-(dimethylamino)ethyl)phenyl)-[1,2,4]triazolo[4,3-c]pyrimidin-5-amine] | 8.3 | 15.3
Cc1ncccc1-c1cnc(NCc2c(F)ccc3c2C(O)CO3)n2cnnc12 (centres unmarked) [Example 242, 5-fluoro-4-(((8-(2-methylpyridin-3-yl)-[1,2,4]triazolo[4,3-c]pyrimidin-5-yl)amino)methyl)-2,3-dihydrobenzofuran-3-ol] | 13.8 | 50
Cc1ncn(-c2cnc(NCc3c(F)ccc4c3CCO4)n3cnnc23)n1 [Example 238, N-((5-fluoro-2,3-dihydrobenzofuran-4-yl)methyl)-8-(3-methyl-1H-1,2,4-triazol-1-yl)-[1,2,4]triazolo[4,3-c]pyrimidin-5-amine] | 4.7 | 14.4
CS(=O)(=O)CCOc1cncc(-c2cnc(NCc3cccc4c3CCO4)n3cnnc23)c1 [Example 106, N-((2,3-dihydrobenzofuran-4-yl)methyl)-8-(5-(2-(methylsulfonyl)ethoxy)pyridin-3-yl)-[1,2,4]triazolo[4,3-c]pyrimidin-5-amine] | 25 | 34.1
CCOc1ncc(-c2cnc(NCc3c(F)ccc4c3CCO4)n3cnnc23)c(C)n1 [Example 226, 8-(2-ethoxy-4-methylpyrimidin-5-yl)-N-((5-fluoro-2,3-dihydrobenzofuran-4-yl)methyl)-[1,2,4]triazolo[4,3-c]pyrimidin-5-amine] | 3.9 | 5
Cc1nn(C[C@@H](C)O)c(C)c1-c1cnc(NCc2c(F)ccc3c2CCO3)n2cnnc12 [Example 186, (2R)-1-(4-(5-(((5-fluoro-2,3-dihydrobenzofuran-4-yl)methyl)amino)-[1,2,4]triazolo[4,3-c]pyrimidin-8-yl)-3,5-dimethyl-1H-pyrazol-1-yl)propan-2-ol] | 3.5 | 6
O=C(c1ccc(-c2cnc(NCc3cccc4c3CCO4)n3cnnc23)cn1)N1CCOCC1 [Example 68, (5-(5-(((2,3-dihydrobenzofuran-4-yl)methyl)amino)-[1,2,4]triazolo[4,3-c]pyrimidin-8-yl)pyridin-2-yl)(morpholino)methanone] | 19.7 | 36.7
Cc1ncccc1-c1c(C)nc(NCc2c(F)ccc3c2CCO3)n2cnnc12 [Example 203, N-((5-fluoro-2,3-dihydrobenzofuran-4-yl)methyl)-7-methyl-8-(2-methylpyridin-3-yl)-[1,2,4]triazolo[4,3-c]pyrimidin-5-amine] | 42.4 | 338
CCc1cc(C)c(-c2cnc(NCc3c(F)ccc4c3CCO4)n3cnnc23)cn1 [Example 224, 8-(6-ethyl-4-methylpyridin-3-yl)-N-((5-fluoro-2,3-dihydrobenzofuran-4-yl)methyl)-[1,2,4]triazolo[4,3-c]pyrimidin-5-amine] | 1.5 | 1.9
CN1CCN(c2cc(-c3cnc(NCc4cccc5c4CCO5)n4cnnc34)ccn2)CC1 [Example 18, N-((2,3-dihydrobenzofuran-4-yl)methyl)-8-(2-(4-methylpiperazin-1-yl)pyridin-4-yl)-[1,2,4]triazolo[4,3-c]pyrimidin-5-amine] | 18.5 | 27.9
O=S(=O)(c1ccc(-c2cnc(NCc3cccc4c3CCO4)n3cnnc23)cc1)C1CCNCC1 [Example 29, N-((2,3-dihydrobenzofuran-4-yl)methyl)-8-(4-(piperidin-4-ylsulfonyl)phenyl)-[1,2,4]triazolo[4,3-c]pyrimidin-5-amine] | 8.1 | 14.5
Fc1ccncc1-c1cnc(NCc2cccc3c2CCO3)n2cnnc12 [Example 85, N-((2,3-dihydrobenzofuran-4-yl)methyl)-8-(4-fluoropyridin-3-yl)-[1,2,4]triazolo[4,3-c]pyrimidin-5-amine] | 8.3 | 26
CNc1cc(F)c(-c2cnc(NCc3cccc4c3CCO4)n3cnnc23)cn1 [Example 111, N-((2,3-dihydrobenzofuran-4-yl)methyl)-8-(4-fluoro-6-(methylamino)pyridin-3-yl)-[1,2,4]triazolo[4,3-c]pyrimidin-5-amine] | 19 | 17.4
OC1CN(c2ccc(-c3cnc(NCc4cccc5c4CCO5)n4cnnc34)cn2)C1 [Example 126, 1-(5-(5-(((2,3-dihydrobenzofuran-4-yl)methyl)amino)-[1,2,4]triazolo[4,3-c]pyrimidin-8-yl)pyridin-2-yl)azetidin-3-ol] | 12.9 | 17.2
c1cc(CNc2ncc(-c3cncnc3)c3nncn23)c2c(c1)OCC2 [Example 51, N-((2,3-dihydrobenzofuran-4-yl)methyl)-8-(pyrimidin-5-yl)-[1,2,4]triazolo[4,3-c]pyrimidin-5-amine] | 136 | 346
COCc1cc(-c2cnc(NCc3cccc4c3CCO4)n3cnnc23)cnc1C [Example 137, N-((2,3-dihydrobenzofuran-4-yl)methyl)-8-(5-(methoxymethyl)-6-methylpyridin-3-yl)-[1,2,4]triazolo[4,3-c]pyrimidin-5-amine] | 22 | 29.6
Cc1cc(-c2cnc(NCc3cccc4c3CCO4)n3cnnc23)cnc1N1CCOCC1 [Example 73, N-((2,3-dihydrobenzofuran-4-yl)methyl)-8-(5-methyl-6-morpholinopyridin-3-yl)-[1,2,4]triazolo[4,3-c]pyrimidin-5-amine] | 12.5 | 17.4
Cc1ncc(-c2cnc(NCc3c(F)ccc4c3CCO4)n3cnnc23)c(C)n1 [Example 3, 8-(2,4-Dimethylpyrimidin-5-yl)-N-((5-fluoro-2,3-dihydrobenzofuran-4-yl)methyl)-[1,2,4]triazolo[4,3-c]pyrimidin-5-amine] | 3.8 | 6.4
Cc1nn(C[C@H](C)O)c(C)c1-c1cnc(NCc2c(F)ccc3c2CCO3)n2cnnc12 [Example 187, (2S)-1-(4-(5-(((5-fluoro-2,3-dihydrobenzofuran-4-yl)methyl)amino)-[1,2,4]triazolo[4,3-c]pyrimidin-8-yl)-3,5-dimethyl-1H-pyrazol-1-yl)propan-2-ol] | 8.2 | 12.5
CN(C)c1ncc(-c2cnc(NCc3cccc4c3CCO4)n3cnnc23)cn1 [Example 88, N-((2,3-dihydrobenzofuran-4-yl)methyl)-8-(2-(dimethylamino)pyrimidin-5-yl)-[1,2,4]triazolo[4,3-c]pyrimidin-5-amine] | 25.7 | 34.7
COc1ncccc1-c1cnc(NCc2c(F)ccc3c2CCO3)n2cnnc12 [Example 141, N-((5-fluoro-2,3-dihydrobenzofuran-4-yl)methyl)-8-(2-methoxypyridin-3-yl)-[1,2,4]triazolo[4,3-c]pyrimidin-5-amine] | 17.1 | 42
